Where a name gives a salt, the structure may show the parent alone.
Key:
[1] = target: T1, recombinant human 5-HT6 receptor (Homo sapiens, UniProt P50406); test: Radioligand binding, [3H]LSD competition, membranes of HEK293 cells expressing 5-HT6; conditions: HEK293 cell membranes, pH 7.4, 37° C., 75 min, read-out: pKi for 5-HT6 (converted)
T1 construct: expressed in transfected cells; membranes
Method: (§1) The binding activity of compounds of this invention in vitro was determined as follows. Duplicate determinations of 5-HT6 ligand affinity were made by competing for binding of [^3H]LSD in cell membranes derived from HEK293 cells stably expressing recombinant human 5-HT6 receptor. Duplicate determinations of 5-HT2A ligand affinity were made by competing for binding of [^3H]Ketanserin (3-(2-(4-(4-fluorobenzoyl)piperidinol)ethyl)-2,4(1H,3H)-quinazolinedione) in cell membranes derived from CHO-K1 cells stably expressing recombinant human 5-HT2A receptor. Membranes were prepared from HEK 293 cell lines by the method described by Monsma et al., Molecular Pharmacology, Vol. 43 pp. 320-327 (1993), and from CHO-K1 cell lines as described by Bonhaus et al., Br J Pharmacol. June; 115(4):622-8 (1995).
(§2) For estimation of affinity at the 5-HT6 receptor, all determinations were made in assay buffer containing 50 mM Tris-HCl, 10 mM MgSO4, 0.5 mM EDTA, 1 mM ascorbic acid, pH 7.4 at 37° C., in a 250 microliter reaction volume. […]
(§3) Assay tubes containing [^3H] […] LSD or [^3H]Ketanserin were determined as radioactive counts per minute using Packard TopCount.
(§4) Displacement of [^3H]LSD or [^3H]Ketanserin from the binding sites was quantified by fitting concentration-binding data to a 4-parameter logistic equation: […]

[2] = target: T2, recombinant human 5-HT2A receptor (Homo sapiens, UniProt P28223); test: Radioligand binding, [3H]Ketanserin competition, membranes of CHO-K1 cells expressing 5-HT2A; conditions: CHO-K1 cell membranes, pH 7.4, 32° C., 60 min, read-out: pKi for 5-HT2A (converted)
T2 construct: expressed in transfected cells; membranes
T2 sequence (P28223 whole entry): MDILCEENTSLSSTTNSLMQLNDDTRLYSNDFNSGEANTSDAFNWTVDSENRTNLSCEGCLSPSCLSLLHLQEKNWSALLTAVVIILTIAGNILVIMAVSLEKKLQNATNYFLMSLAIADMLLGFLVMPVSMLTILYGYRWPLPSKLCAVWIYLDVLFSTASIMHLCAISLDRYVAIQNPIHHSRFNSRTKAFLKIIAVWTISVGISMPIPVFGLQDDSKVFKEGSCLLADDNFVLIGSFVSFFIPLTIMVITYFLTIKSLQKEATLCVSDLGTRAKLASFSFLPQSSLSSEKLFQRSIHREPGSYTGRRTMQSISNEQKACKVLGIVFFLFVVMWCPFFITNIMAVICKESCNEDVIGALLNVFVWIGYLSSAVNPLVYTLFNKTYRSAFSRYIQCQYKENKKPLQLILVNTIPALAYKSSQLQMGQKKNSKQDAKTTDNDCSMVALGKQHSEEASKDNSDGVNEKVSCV
Method: as §1, §2, §3, §4

T1 sequence (P50406 whole entry): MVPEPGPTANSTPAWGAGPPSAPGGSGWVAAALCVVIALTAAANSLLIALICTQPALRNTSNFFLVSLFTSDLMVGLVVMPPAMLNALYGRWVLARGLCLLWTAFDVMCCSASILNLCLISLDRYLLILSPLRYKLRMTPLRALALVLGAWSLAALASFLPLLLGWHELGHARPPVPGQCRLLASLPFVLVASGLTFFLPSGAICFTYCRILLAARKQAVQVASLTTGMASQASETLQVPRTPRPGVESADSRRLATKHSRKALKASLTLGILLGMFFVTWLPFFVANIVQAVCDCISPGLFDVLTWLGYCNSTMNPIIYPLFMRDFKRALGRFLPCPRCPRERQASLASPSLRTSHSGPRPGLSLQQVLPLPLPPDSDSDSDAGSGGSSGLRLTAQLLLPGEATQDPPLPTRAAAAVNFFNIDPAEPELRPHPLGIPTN

melting point [°C]	Ki [1] [nM]	Ki [2] [nM]	SMILES
243 to 249	–	–	O=S(=O)(c1ccccc1)c1ccc2c(c1)OCCC2N1CCNCC1 (stereo not drawn) (as salt: HCl) [Compound 1, 1-(7-Benzenesulfonyl-chroman-4-yl)-piperazine]
–	~0.417	~46.8	O=S(=O)(c1ccccc1)c1ccc2c(c1)OCCC2N1CCNCC1 (stereo not drawn) [Compound 1, 1-(7-Benzenesulfonyl-chroman-4-yl)-piperazine]
